According to US20250213614A1, “Modified RELA Protein for Inducing Interferon Expression and Engineered Immune Cells with Improved Interferon Expression” (Institut Curie, priority 2022, published 2025):

B1: IRF3: interferon Regulatory Factor 3, over-expressed from lentivector (protein, UniProt Q14653 1-427, looked up)
Interferon regulatory factor 3: MGTPKPRILPWLVSQLDLGQLEGVAWVNKSRTRFRIPWKHGLRQDAQQEDFGIFQAWAEATGAYVPGRDKPDLPTWKRNFRSALNRKEGLRLAEDRSKDPHDPHKIYEFVNSGVGDFSQPDTSPDTNGGGSTSDTQEDILDELLGNMVLAPLPDPGPPSLAVAPEPCPQPLRSPSLDNPTPFPNLGPSENPLKRLLVPGEEWEFEVTAFYRGRQVFQQTISCPEGLRLVGSEVGDRTLPGWPVTLPDPGMSLTDRGVMSYVRHVLSCLGGGLALWRAGQWLWAQRLGHCHTYWAVSEELLPNSGHGPDGEVPKDKEGGVFDLGPFIVDLITFTEGSGRSPRYALWFCVGESWPQDQPWTKRLVMVKVVPTCLRALVEMARVGGASSLENTVDLHISNSHPLSLTSDQYKAYLQDLVEGMDFQGPGES

Experiments:
MDDC = assay: IFN-I/III quantification (LEGENDplex) in MDDC after STING stimulation; format: cell-based, human
Protocol: Plasmapheresis blood pockets were obtained from healthy adult volunteers after informed consent from the EFS (Establishment of French blood collection). Peripheral blood mononuclear cells (PBMCs) were isolated using Ficoll-Paque Plus (GE-17144003) and left overnight at 4° C. in RPMI (Thermo fischer #61870-010) with 10% heat-decomplemented fetal bovine serum (FBS, Eurobio #CVFSVFO0-01). CD14+ cells were enriched by positive selection (Miltenyi #130-050-201), the CD14 negative fraction was subsequently used to isolate total CD4+ T cells by negative selection (Stem Cell #17952). CD14+ cells were cultured in RPMI containing 10% FBS, 5% Penicillin-Streptomycin (PS, Thermo Fisher #10378-016), 50 μg/ml Gentamicin (Thermo Fisher #15750-045) and 10 mM HEPES (Thermo Fisher #15630-056). CD14+ cells were differentiated ex vivo into MDDC by supplementing the culture media with 50 ng/ml IL-4 (Miltenyi #130-093-922) and 10 ng/ml GM-CSF (Miltenyi #130-093-867). MDDC were used for experiments 3 or 4 days following the start of the culture. CD14+ cells were differentiated ex vivo into macrophages by adding 50 ng/ml MCSF (Miltenyi #130-096-492) to the culture media containing RPMI with 1% PS, 5% FBS and 5% human serum (Sigma #H4522). MDM were used 7 days following culture. Freshly isolated CD4+ T cells were cultured in X-VIVO 15 (Lonza #BE02-060F) and activated using anti-CD3 and anti-CD28 Dynabeads (fisher scientific #10548353) at the ratio of 1:5 (bead:cell). 100 U/ml human IL-2 (Immunotools #11340027) was added to cultures 2 days following TCR stimulation and media with IL-2 was replenished every 48 hours. To assess proliferation, freshly isolated CD4+ T cells were stained with cell proliferation dye (thermo fischer #65-0840-85) prior to TCR stimulation.
CD14+ cells were plated at 1 million cells/ml and transduced with equal volumes of freshly harvested SIV-VLPs and pTRIP-SFFV vectors in the presence of 8 μg/ml protamine (Sigma #P4020). CD4+ T cells were transduced with lentivectors 24 hours post-TCR stimulation in 100 μl of cells (0.2 million cells) and 100 μl of freshly harvested lentivirus in the presence of 8 μg/ml protamine. T cells were spinoculated at 1200 g for 2 hours at 25° C. 0.5 million THP-1 cells in 500 μl media (RPMI 10% FBS 1% PS) were transduced with 500 μl freshly harvested lentivirus in the presence of 8 μg/ml protamine. 1 μg/ml Puromycin (Invivogen #ant-pr-1) was added 2 days post-transduction when cells were transduced with pLKO.1-puro plasmid.
For stimulation of STING by extracellular ligands, 2.5 μg of ADUS100 (invivogen #tlrl-nacda2r-01) or 2′3′-cGAMP (cGAMP, invivogen #tlrl-nacga23-02) was added to 100,000 cells in 100 μl media either on freshly isolated primary cells or 3-4 days post differentiation for MDDC and 3 days post-TCR stimulation for CD4+ T cells. Cells and supernatant were harvested 18-24 hours post stimulation. For delivery of STING ligands after permeabilization, T cells were used 3 or 4 days post TCR stimulation and MDDC were used 3-4 days following differentiation. 150,000 cells were plated in round bottom 96-well plate. Media was removed by centrifugation and 20 μl 2× permeabilization buffer (100 mM HEPES, 200 mM KCl, 6 mM MgCl2, 0.2 mM DTT, 170 mM Sucrose, 2 mM ATP, 2 mM GTP, 0.4% bovine serum albumin (BSA), 20 μg/ml digitonin) and 20 μl cGAMP (12 μg/ml) was added to cells. 18 to 20 hours following stimulation supernatants and cells were harvested. Cells were stained with a fixable viability dye (Invitrogen #65-0865-14) and acquired on a FACSVerse (BD).
For experiments with conditioned media, CD4+ T cell- and MDDC-conditioned media refer to […] filtered conditioned media from cultures of activated CD4+ T cell and MDDC, respectively. CD4+ T cells were pretreated with 100 μl of MDDC-conditioned media or of fresh MDDC culture media, 24 hours prior to cGAMP stimulation. […]

cGAS = assay: cGAMP quantification by ELISA in CD4+ T cells; format: cell-based, human; conditions: CD4+ T cells expressing RELA K5R or IRF3, FIG. 5B
Protocol: For cGAS stimulation, 2 μg of control GFP plasmid DNA (provided in the kit) was nucelofected in 2 million T cells 72 hours post TCR stimulation (Lonza #VPA-1002) using the programme T020 (Lonza #Nucleofector 2b). Cells were harvested at 4 hours and 24 hours after nucleofection for analysis.
Cell pellets were stored at −80° C. until extraction. Frozen pellets were fixed in 80% cold methanol and subjected to 5 freeze-thaw cycles in liquid nitrogen. Samples were then centrifuged at 16,000 g for 20 minutes at 4° C. The supernatants were further subjected to drying in Savant DNA Speed Vac DNA 110 at 65° C. for 2 hours. The pellets were resuspended in 100 μl RNase- and DNase-free water and cGAMP was quantified by ELISA as per manufacturers protocol (Interchim #501700). cGAMP quantity was normalized to cell numbers and represented as pg/million cells.

Molecule	increase in IFNλ1 at baseline (MDDC; MDDC, monocyte-derived macrophages (MDM) or THP-1 cells, data not shown)	IFN-I/III response to cGAMP compared to the control condition (MDDC; lentivector overexpression in MDDC, cGAMP 6 μg/ml, FIG. 2D)	cellular cGAMP (cGAS)	augmentation of cGAMP-mediated IFNλ1, IFNα2 and IFNβ production (MDDC; IRF3 over-expression in MDDC, cGAMP 6 μg/ml, FIG. 3B)
RELA K5R: RELA mutant converting five lysine residues (K122, K123, K310, K314, K315) to arginine, expressed from lentivector	not observed	remained unchanged	no significant increase	
B1			no significant increase	10 fold
